Experimental data taken from patent US8404694B2, “Aurora kinase modulators and method of use” (Amgen Inc., priority 2008, dated 2013).

Tested on: HeLa cells
Assay: HeLa cell 24 hr ploidy assay
Type: cell-based
Conditions: Homo sapiens, 24 hrs treatment, DNA content (ploidy), read-out: 24 h_4N Ploidy EC50—IP (Avg)
Description: HeLa Cell 24 hr Ploidy Assay Protocol
The purpose of this assay is to evaluate the ability of selected individual compounds to induce Deoxyribonucleic acid (DNA) content (ploidy) in cells thought failed cell division. Cell cycle analysis is a rapid and efficient way to evaluate the status of DNA content (ploidy) of a given cell. HeLa cells (1×10^4 HeLa cells/well) in 100 ul of media (MEM+10% FBS) were plated in 96-well plates (Packard View) and cultured for 24 hrs at 37° C. maintained in a 5% CO2 atmosphere. The following day, cells were treated for 24 hrs with inhibitor compounds (10 pt. Dose ranging from 0.0024-1.25 umol/L). The compounds were serially diluted in DMSO (0.25% final concentration). The cells were fixed (3.7% Formaldehyde and 1% glutaraldehyde) and permeabilized (1×PBS with 1% BSA and 0.2% Triton X-100) in preparation for nuclear staining. The well plates were stained for 45 minutes at RT in the dark using Hoechest 33342 nuclear stain at 0.5 ug·ml (Stock of 10 mg/ml, Invitrogen, CA, Cat # H3570). The nuclear stain was removed by aspiration and the cells were washed with wash buffer. A Cellomics Array Scan Vti plate reader was used to acquire the DNA ploidy data of the cells using Cell Cycle bioapplication. Numbers for each of “valid cell count/well”, “% of 4N cells” and “% of >4Ncells” were calculated with the assistance of an Activity Base 5.1ca software and dose curves were generated using an XLFit software. With XLFit, final EC50 IP and EC50 transit values, as well as the Max and Min, were calculated for each curve. Many of the Examples described herein were tested, and fund to be active compounds. Table I includes related biological data in the 24 h cell-ploidy content assay, which may be interpreted using the activity gauge below: […]

C=CCOc1cc2nccc(Sc3ccc(Nc4nnc(-c5ccc(Cl)cc5)c5ccccc45)cc3)n2n1 [Example 4, N-(4-(2-(allyloxy)pyrazolo[1,5-a]pyrimidin-7-ylthio)phenyl)-4-(4-chlorophenyl)phthalazin-1-amine]
EC50: 100 to 500 nM
